Source: PubChem BioAssay AID2060498 (Molecular Pharmacology Branch, DTP, NCI, 2025)
“And” between values parts separate entries of the source, which are not always exact repeats. Equal values may be shown once.

Tested on: 171881-019-R-J1-PDC tumor spheroids, viability
Assay: Anticancer human tumor 171881-019-R-J1-PDC patient-derived invasive breast carcinoma cell line growth inhibition [GQUAD]
Conditions: spheroids with HUVEC and MSC; for viability, T/C: stronger effect = lower value
Procedure, shortened: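 Viability of tumor cells grown as complex spheroids with endothelial and stromal cells, exposed to drug combinations. Top concentration at or near clinical Cmax (else 10 microM), diluted in half-log increments.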

[1] = curve of first compound, second compound 0.0316 µM
[2] = curve of first compound, second compound 0.1 µM
[3] = curve of first compound, second compound 0.316 µM
[4] = curve of first compound, second compound 1 µM
[5] = curve of first compound, second compound 3.16 µM
[6] = curve of first compound, second compound 10 µM
[7] = second compound 0.0316 µM, first compound 0.0316 µM
[8] = second compound 0.0316 µM, first compound 0.1 µM
[9] = second compound 0.0316 µM, first compound 0.316 µM
[10] = second compound 0.0316 µM, first compound 1 µM
[11] = second compound 0.0316 µM, first compound 3.16 µM
[12] = second compound 0.0316 µM, first compound 10 µM
[13] = second compound 0.1 µM, first compound 0.0316 µM
[14] = second compound 0.1 µM, first compound 0.1 µM
[15] = second compound 0.1 µM, first compound 0.316 µM
[16] = second compound 0.1 µM, first compound 1 µM
[17] = second compound 0.1 µM, first compound 3.16 µM
[18] = second compound 0.1 µM, first compound 10 µM
[19] = second compound 0.316 µM, first compound 0.0316 µM
[20] = second compound 0.316 µM, first compound 0.1 µM
[21] = second compound 0.316 µM, first compound 0.316 µM
[22] = second compound 0.316 µM, first compound 1 µM
[23] = second compound 0.316 µM, first compound 3.16 µM
[24] = second compound 0.316 µM, first compound 10 µM
[25] = second compound 1 µM, first compound 0.0316 µM
[26] = second compound 1 µM, first compound 0.1 µM
[27] = second compound 1 µM, first compound 0.316 µM
[28] = second compound 1 µM, first compound 1 µM
[29] = second compound 1 µM, first compound 3.16 µM
[30] = second compound 1 µM, first compound 10 µM
[31] = second compound 3.16 µM, first compound 0.0316 µM
[32] = second compound 3.16 µM, first compound 0.1 µM
[33] = second compound 3.16 µM, first compound 0.316 µM
[34] = second compound 3.16 µM, first compound 1 µM
[35] = second compound 3.16 µM, first compound 3.16 µM
[36] = second compound 3.16 µM, first compound 10 µM
[37] = second compound 10 µM, first compound 0.0316 µM
[38] = second compound 10 µM, first compound 0.1 µM
[39] = second compound 10 µM, first compound 0.316 µM
[40] = second compound 10 µM, first compound 1 µM
[41] = second compound 10 µM, first compound 3.16 µM
[42] = second compound 10 µM, first compound 10 µM
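Throughout, for viability, T/C: 100% = DMSO vehicle control viability.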

Compound: CC(=O)O[C@H]1C(=O)[C@@]2(C)[C@H]([C@H](OC(=O)c3ccccc3)[C@]3(O)C[C@H](OC(=O)[C@H](O)[C@@H](NC(=O)c4ccccc4)c4ccccc4)C(C)=C1C3(C)C)[C@]1(OC(C)=O)CO[C@@H]1C[C@@H]2O + Cc1[nH]c2ccc(F)cc2c1-c1nc2c3cccnc3c3ncccc3c2[nH]1
- IC50 [1]: < 31.6 nM
- IC50 [2]: 36.8 nM
- IC50 [3]: 32.2 nM
- IC50 [4]: < 31.6 nM
- IC50 [5]: < 31.6 nM
- IC50 [6]: < 31.6 nM
- viability, T/C [7]: 52.2%
- viability, T/C [8]: 32.3%
- viability, T/C [9]: 35.5%
- viability, T/C [10]: 30.8%
- viability, T/C [11]: 28.9%
- viability, T/C [12]: 30.1%
- viability, T/C [13]: 52.5%
- viability, T/C [14]: 33.2%
- viability, T/C [15]: 29.5%
- viability, T/C [16]: 31%
- viability, T/C [17]: 28.3%
- viability, T/C [18]: 28.7%
- viability, T/C [19]: 50.2%
- viability, T/C [20]: 35.5%
- viability, T/C [21]: 28.8%
- viability, T/C [22]: 29.5%
- viability, T/C [23]: 29.7%
- viability, T/C [24]: 26.8%
- viability, T/C [25]: 41.2%
- viability, T/C [26]: 30.2%
- viability, T/C [27]: 32.1%
- viability, T/C [28]: 24.9%
- viability, T/C [29]: 29.7%
- viability, T/C [30]: 24.6%
- viability, T/C [31]: 6.75%
- viability, T/C [32]: 4.71%
- viability, T/C [33]: 4.42%
- viability, T/C [34]: 3.51%
- viability, T/C [35]: 5.16%
- viability, T/C [36]: 3.23%
- viability, T/C [37]: 27.3%
- viability, T/C [38]: 25.1%
- viability, T/C [39]: 17.3%
- viability, T/C [40]: 21.1%
- viability, T/C [41]: 23.2%
- viability, T/C [42]: 18.3%

Compound: COc1ncnc(C2CC2)c1-c1ncc2cnn(Cc3ccc(-c4nc(C(F)(F)F)cn4C(C)C)cc3)c2n1
- viability, T/C (compound 0.0316 µM): 94% and 84.8% and 93.3%
- viability, T/C (compound 0.1 µM): 89.3% and 100% and 93.7%
- viability, T/C (compound 0.316 µM): 85.2% and 92.9% and 94%
- viability, T/C (compound 1 µM): 100% and 95.7% and 106%
- viability, T/C (compound 3.16 µM): 91.3% and 98.7% and 97.9%
- viability, T/C (compound 10 µM): 76.1% and 90.1% and 79.6%
- IC50 (curve of compound): > 10000 nM

Compound: C=CC(=O)N1CCN(c2nc(=O)n(-c3c(C)ccnc3C(C)C)c3nc(-c4c(O)cccc4F)c(F)cc23)C(C)C1 (configuration not stated) + CN(C)c1ccc(Nc2c3ccc(NC(=O)CCN4CCCC4)cc3nc3cc(NC(=O)CCN4CCCC4)ccc23)cc1
- IC50 [1]: > 10000 nM
- IC50 [2]: > 10000 nM
- IC50 [3]: 7360 nM
- IC50 [4]: < 31.6 nM
- IC50 [5]: < 31.6 nM
- IC50 [6]: < 31.6 nM
- viability, T/C [7]: 98.3%
- viability, T/C [8]: 104%
- viability, T/C [9]: 102%
- viability, T/C [10]: 117%
- viability, T/C [11]: 99.3%
- viability, T/C [12]: 53.5%
- viability, T/C [13]: 94.8%
- viability, T/C [14]: 115%
- viability, T/C [15]: 111%
- viability, T/C [16]: 119%
- viability, T/C [17]: 96.9%
- viability, T/C [18]: 59.3%
- viability, T/C [19]: 79.3%
- viability, T/C [20]: 75.8%
- viability, T/C [21]: 69.8%
- viability, T/C [22]: 70%
- viability, T/C [23]: 70.6%
- viability, T/C [24]: 42.9%
- viability, T/C [25]: 19%
- viability, T/C [26]: 16%
- viability, T/C [27]: 18.6%
- viability, T/C [28]: 17.1%
- viability, T/C [29]: 15.3%
- viability, T/C [30]: 10.2%
- viability, T/C [31]: 1.61%
- viability, T/C [32]: 1.65%
- viability, T/C [33]: 1.29%
- viability, T/C [34]: 1.13%
- viability, T/C [35]: 2.03%
- viability, T/C [36]: 1.73%
- viability, T/C [37]: 0.27%
- viability, T/C [38]: 0.5%
- viability, T/C [39]: 0.42%
- viability, T/C [40]: 0.9%
- viability, T/C [41]: 0.45%
- viability, T/C [42]: 0.56%

Compound: O=c1[nH]cc(F)c(=O)[nH]1 + CN(C)c1ccc(Nc2c3ccc(NC(=O)CCN4CCCC4)cc3nc3cc(NC(=O)CCN4CCCC4)ccc23)cc1
- IC50 [1]: > 10000 nM
- IC50 [2]: > 10000 nM
- IC50 [3]: 9940 nM
- IC50 [4]: < 31.6 nM
- IC50 [5]: < 31.6 nM
- IC50 [6]: < 31.6 nM
- viability, T/C [7]: 84%
- viability, T/C [8]: 79.3%
- viability, T/C [9]: 75.2%
- viability, T/C [10]: 69.5%
- viability, T/C [11]: 62.9%
- viability, T/C [12]: 63.9%
- viability, T/C [13]: 79.7%
- viability, T/C [14]: 72.9%
- viability, T/C [15]: 73.4%
- viability, T/C [16]: 69.1%
- viability, T/C [17]: 65.7%
- viability, T/C [18]: 61.6%
- viability, T/C [19]: 70.5%
- viability, T/C [20]: 69.4%
- viability, T/C [21]: 69.5%
- viability, T/C [22]: 55.4%
- viability, T/C [23]: 58%
- viability, T/C [24]: 49.9%
- viability, T/C [25]: 14.9%
- viability, T/C [26]: 11.1%
- viability, T/C [27]: 17%
- viability, T/C [28]: 12.6%
- viability, T/C [29]: 13.4%
- viability, T/C [30]: 15.8%
- viability, T/C [31]: 2.15%
- viability, T/C [32]: 1.36%
- viability, T/C [33]: 2.04%
- viability, T/C [34]: 2.2%
- viability, T/C [35]: 2.62%
- viability, T/C [36]: 2.05%
- viability, T/C [37]: 0.33%
- viability, T/C [38]: 0.41%
- viability, T/C [39]: 0.8%
- viability, T/C [40]: 0.38%
- viability, T/C [41]: 0.5%
- viability, T/C [42]: 0.29%

Compound: COc1cccc2c1C(=O)c1c(O)c3c(c(O)c1C2=O)CC(O)(C(=O)CO)CC3OC1CC(N)C(O)C(C)O1 (configuration not stated)
- viability, T/C (compound 0.0316 µM): 90.7% and 94.5% and 84.5%
- viability, T/C (compound 0.1 µM): 52% and 64.5% and 52.4%
- viability, T/C (compound 0.316 µM): 39.5% and 50.2% and 35.5%
- viability, T/C (compound 1 µM): 13.5% and 20% and 15%
- viability, T/C (compound 3.16 µM): 0.2% and 0.32% and 0.18%
- viability, T/C (compound 10 µM): 0.4% and 0.19% and 0.39%
- IC50 (curve of compound): 138 nM and 241 nM and 128 nM

Compound: Nc1ccn(C2OC(CO)C(O)C2(F)F)c(=O)n1 (configuration not stated)
- viability, T/C (compound 0.0316 µM): 24% and 35.9% and 25.5%
- viability, T/C (compound 0.1 µM): 30.8% and 38.8% and 28.2%
- viability, T/C (compound 0.316 µM): 39.4% and 47.6% and 37.4%
- viability, T/C (compound 1 µM): 37.8% and 48.4% and 37.6%
- viability, T/C (compound 3.16 µM): 35.4% and 45.9% and 35.1%
- viability, T/C (compound 10 µM): 31.4% (2×) and 44%
- IC50 (curve of compound): < 31.6 nM
